Measurements reported in paper PMC6114082, “Synthesis of aminophenylhydroxamate and aminobenzylhydroxamate derivatives and in vitro screening for antiparasitic and histone deacetylase inhibitory activity” (International Journal for Parasitology: Drugs and Drug …, 2018).
Read-outs that look alike come from different tables or passages of the source.

Columns and labels:
[1] = test system: L. infantum MHOM/MA/67/ITMAP-264; experiment: Antileishmanial activity, L. infantum promastigotes (luciferase expressing strain); assay type: cell-based, Leishmania infantum; settings: for IC50: promastigotes, luciferase expressing strain; for IS^b selectivity index for L. infantum: IC50 THP-1 / IC50 Leishmania infantum (footnote)
Protocol: (§1) The antitrypanosomatid activity of the compounds was ascertained as follows. Leishmania parasites were cultured at 26 °C in SDM-79 medium supplemented with 10% fetal calf serum (FCS), and the antileishmanial activity was determined according to a previously published protocol for LUC-expressing and wild-type Leishmania ([Sereno et al., 2001], [Abbassi et al., 2008]). Trypanosoma brucei gambiense were grown at 26 °C in Cunningham's medium supplemented with 10% FCS, 2 mM GlutaMAX-1 (Gibco, USA), 100 U/ml penicillin, 100 μg/ml streptomycin and […] bovine hemin. The epimastigote form of Trypanosoma cruzi (strain Y cl7 scl2, lineage Tc2) (kindly provided by Philippe Truc and Christian Barnabé, UMR 177 IRD-CIRAD InterTryp, Montpellier, France) were grown at 26 °C in liver infusion tryptose (LIT) medium, supplemented with 10% FCS, 2 mM GlutaMAX™-I, 100 U/ml penicillin, 100 μg/ml streptomycin and bovine hemin (20 mg/l) (Gibco). The antitrypanosomatids activity was determined using a protocol that was initialy set up for wild-type Leishmania ([Abbassi et al., 2008]). To assess the drug activity on Toxoplasma gondii, confluent human foreskin fibroblast (HFF) monolayers were infected with YFP-type I Rh kindly provided by B. Striepen, see ([Striepen et al., 1998]) or Tomato-type II Pru kindly provided by N. Blanchard (Toulouse), expressing parasites at 5 × 10^4 per well, which were then centrifuged for 30 s at 1300 rpm and incubated for 30 min in a water bath at 37 °C to allow invasion. The wells were then washed three times with PBS to eliminate extracellular parasites, and the drugs were added at various concentrations ranging from 1 to 50 μM. After incubation for 24 h at 37 °C in a humidified atmosphere containing 5% CO2, the cells were fixed in 2.5% methanol-free formaldehyde (Tebu-bio)/PBS for 30 min at room temperature. Nuclei were stained with Hoechst 33258 (2 μg/ml, Molecular Probes) for 20 min and then washed three times with water for 10 min each time. The number of infected cells, i.e., cells harboring a parasitophorous vacuole, and the number of parasites per vacuole were determined using an Olympus ScanR microscope ( × 20 objective) and ScanR software. The parasitic index in % compared to the control was calculated as follows: (PI=((number of parasite/100 cells in treated wells) x (% of infected macrophage in treated well)/(number of parasite/100 cells in untreated wells) x (% of infected macrophage in untreated wells))*100).

[2] = test system: L. tropica MHOM/BR/73/5-ASKM; experiment: Antileishmanial activity, L. tropica promastigotes; assay type: cell-based, Leishmania tropica
Protocol: as §1

HFF cells = experiment: Cytotoxicity, MTT assay, HFF; assay type: cell-based, human
Protocol: (§2) The human monocytic cell line THP-1 was cultivated in RPMI medium supplemented with 10% FCS, 2 mM GlutaMAX, 100 U/ml penicillin, and 100 μg/ml streptomycin. HFF cells were cultivated in Dulbecco's modified Eagle's medium (DMEM) with Earle's salts containing 10% FCS, 10 mM HEPES, 1 mM sodium pyruvate, 2 mM GlutaMAX, 100 U/ml penicillin, and 100 μg/ml streptomycin. The THP-1 and HFF cells were maintained in a 5% CO2 incubator at 37 °C. Cytotoxicity was evaluated via the MTT assay, and the IC50 values were calculated using Prism software (Prism 4 for Mac OS X, version 5.0b, December, 2008).

THP-1 cells = experiment: Cytotoxicity, MTT assay, THP-1; assay type: cell-based, human; settings: MTT assay
Protocol: as §2

[3] = test system: HeLa nuclear extract (HDAC 1, 2, 6, and 8 predominant); experiment: Fluorometric HDAC assay, HeLa nuclear extract; assay type: biochemical; settings: HeLa nuclear extract; read-out: HDACi HeLa IC50
Protocol: The HDACi effect against HeLa nuclear extracts and recombinant proteins were measured using a fluorometric HDAC assay kit (Active Motif, Belgium) according to the manufacturer's instructions. […] A negative control containing trichostatin A at a final concentration of 2 μM was analyzed for each independent experiment.

[4] = test system: T. brucei MHOM/CI/81/DAL967; experiment: Antitrypanosomal activity, T. brucei; assay type: cell-based, Trypanosoma brucei gambiense
Protocol: as §1

[5] = test system: L. braziliensis MHOM/BR/75/M209; experiment: Antileishmanial activity, L. braziliensis promastigotes (luciferase expressing strain); assay type: cell-based, Leishmania braziliensis
Protocol: as §1

T. gondi RH-YFP [6] = experiment: Anti-Toxoplasma activity in infected HFF monolayers, type I RH-YFP (parasitic index); assay type: cell-based, Toxoplasma gondii; settings: for IC50: 24 h, type I strain, in HFF, read-out: T. gondi RH-YFP IC50; for IS^a selectivity index for T. gondi: IC50 HFF / IC50 T. gondi RH-YFP
[7] = Cytotoxicity, MTT assay, HFF; assay type: cell-based, human; settings: human, HFF cells
Protocol: as §2

[8] = Cytotoxicity, MTT assay, THP-1; assay type: cell-based, human; settings: human, THP-1 cells (monocytic cell line); MTT assay
Protocol: as §2

Leishmania = experiment: Antileishmanial activity, Leishmania species summarised in text; assay type: cell-based, Leishmania spp.; settings: abstract sentence also covers antitrypanosomal activity, read-out: antileishmanial activity IC50, summarised over species
Protocol: The antitrypanosomatid activity of the compounds was ascertained as follows. Leishmania parasites were cultured at 26 °C in SDM-79 medium supplemented with 10% fetal calf serum (FCS), and the antileishmanial activity was determined according to a previously published protocol for LUC-expressing and wild-type Leishmania ([Sereno et al., 2001], [Abbassi et al., 2008]). Trypanosoma brucei gambiense were grown at 26 °C in Cunningham's medium supplemented with 10% FCS, 2 mM GlutaMAX-1 (Gibco, USA), 100 U/ml penicillin, 100 μg/ml streptomycin and 20 mg/ml bovine hemin. […] The antitrypanosomatids activity was determined using a protocol that was initialy set up for wild-type Leishmania ([Abbassi et al., 2008]). […] The number of infected cells, i.e., cells harboring a parasitophorous vacuole, and the number of parasites per vacuole were determined using an Olympus ScanR microscope ( × 20 objective) and ScanR software. The parasitic index in % compared to the control was calculated as follows: (PI=((number of parasite/100 cells in treated wells) x (% of infected macrophage in treated well)/(number of parasite/100 cells in untreated wells) x (% of infected macrophage in untreated wells))*100).

T. gondi RH-YFP [9] = test system: T. gondi RH-YFP; set-up: method as in Butler et al., 2013; settings: ref Butler et al., 2013; read-out: anti-Toxoplasma IC50, literature; cited from earlier work

`Cc1nc(-c2ccc(C(=O)NCc3ccc(C(=O)NO)cc3)cc2)cs1` [Compound 360] gave an IC50 [1] greater than 60 µM, an IC50 [2] of 55 ± 15 µM and an IC50 (HFF cells) of 22.6 ± 9.5 µM. The IC50 (THP-1 cells) was 2.2 ± 0.5 µM, the IC50 [3] was 0.399 ± 0.137 µM and the IC50 [4] was greater than 60 µM. It also gave an IC50 [5] greater than 60 µM.

In the case of `O=C(NO)c1ccc(NC(=O)c2cccc(F)c2)cc1` [Compound 349, 4-(3-fluorobenzamido)-N-hydroxybenzamide], the IC50 ([1]; Leishmania infantum) is reported as greater than 60 µM, the IC50 (T. gondi RH-YFP [6]; Toxoplasma gondii) is reported as greater than 50 µM and the IC50 ([2]; Leishmania tropica) is reported as greater than 60 µM. The IC50 [7] was greater than 400 µM, the IC50 [8] was 264 ± 8 µM and the IC50 [3] was 0.633 ± 0.041 µM. It also gave an IC50 ([4]; Trypanosoma brucei) greater than 60 µM and an IC50 ([5]; Leishmania braziliensis) greater than 60 µM.

For `O=C(NO)c1ccc(CNS(=O)(=O)c2cccc(F)c2)cc1` [Compound 350, 4-(3-fluorobenzenesulfonamidomethyl)-N-hydroxybenzamide], the IC50 ([1]; Leishmania infantum) was greater than 60 µM, the “IS^a selectivity index for T. gondi” value (T. gondi RH-YFP [6]) was 7.5 and the IC50 (T. gondi RH-YFP [6]; Toxoplasma gondii) was less than 50 µM. The IC50 ([2]; Leishmania tropica) was greater than 60 µM, the IC50 [7] was 300 ± 50 µM and the IC50 [8] was greater than 400 µM. For the same compound, the IC50 ([4]; Trypanosoma brucei) was greater than 60 µM and the IC50 ([5]; Leishmania braziliensis) was greater than 60 µM.

In the case of `O=C(NO)c1ccc(CNC(=O)c2cccc(F)c2)cc1` [Compound 345, 4-{[(3-fluorophenyl)formamido]methyl}-N-hydroxybenzamide], the “IS^b selectivity index for L. infantum” value [1] is reported as 0.3, the IC50 ([1]; Leishmania infantum) is reported as 27.2 ± 2.5 µM and the “IS^a selectivity index for T. gondi” value (T. gondi RH-YFP [6]) is reported as 11.6. It also gave an IC50 ([2]; Leishmania tropica) of 35.3 ± 12.2 µM, an IC50 [7] of 58.3 ± 1.2 µM and an IC50 [3] of 0.866 ± 0.4 µM. For the same compound, the IC50 ([4]; Trypanosoma brucei) was greater than 60 µM, the IC50 ([5]; Leishmania braziliensis) was 23.5 ± 1.5 µM and the IC50 (Leishmania) was 15 to 50 µM.

`Cc1nc(-c2ccc(C(=O)Nc3ccc(C(=O)NO)cc3)cc2)cs1` [Compound 361] gave an IC50 [1] greater than 60 µM, an IC50 (T. gondi RH-YFP [6]) greater than 50 µM and an IC50 [2] greater than 60 µM. It also gave an IC50 (HFF cells) of 25 ± 4 µM, an IC50 (THP-1 cells) greater than 400 µM and an IC50 [3] greater than 1.8 µM. The IC50 [4] was greater than 60 µM and the IC50 [5] was greater than 60 µM.

In the case of `O=C(NO)c1ccc(NS(=O)(=O)c2cccc(F)c2)cc1` [Compound 351, 4-(3-fluorobenzenesulfonamido)-N-hydroxybenzamide], the “IS^b selectivity index for L. infantum” value [1] is reported as less than 1, the IC50 ([1]; Leishmania infantum) is reported as greater than 60 µM and the IC50 (T. gondi RH-YFP [6]; Toxoplasma gondii) is reported as greater than 50 µM. The IC50 ([2]; Leishmania tropica) was greater than 60 µM, the IC50 [7] was 116 ± 3 µM and the IC50 [8] was 33.5 ± 15 µM. It also gave an IC50 [3] of 0.881 ± 0.083 µM, an IC50 ([4]; Trypanosoma brucei) greater than 60 µM and an IC50 ([5]; Leishmania braziliensis) greater than 60 µM.

With `COc1cccc(CC(=O)NCc2ccc(C(=O)NO)cc2)c1` [Compound 362, N-hydroxy-4-{[2-(3-methoxyphenyl)acetamido]methyl}benzamide] the “IS^b selectivity index for L. infantum” value [1] was less than 1, the IC50 ([1]; Leishmania infantum) was greater than 60 µM and the “IS^a selectivity index for T. gondi” value (T. gondi RH-YFP [6]) was greater than 7.6. For the same compound, the IC50 (T. gondi RH-YFP [6]; Toxoplasma gondii) was greater than 50 µM, the IC50 ([2]; Leishmania tropica) was greater than 60 µM and the IC50 [7] was greater than 400 µM. It also gave an IC50 [8] of 30.5 ± 3 µM, an IC50 [3] of 0.518 ± 0.146 µM and an IC50 ([4]; Trypanosoma brucei) greater than 60 µM. The IC50 ([5]; Leishmania braziliensis) was greater than 60 µM.

For `CCc1nc(N)nc(N)c1-c1ccc(Cl)cc1` [pyrimethamine], the IC50 (T. gondi RH-YFP [9]) is given as 0.4 µM.
